Assay results as given in patent US20260167829A1, “USES OF DIAZIRINES” (Nanyang Technological University, priority 2022, published 2026).
Entries after “also recorded” stand apart in the source; their conditions may differ. Blank lines part the entries; values can stand above or below the compound they belong to.

How the values were obtained:
[1] = UV/VIS spectroscopy, molar absorption; type: physicochemical
Protocol: The solution is then added to UV/VIS quartz tube with a path length of 1 cm. The background is normalized to chloroform. The samples are tested in the wavelength range of 200 to 800 nm at a medium scan rate of 2 nm, and a slit width of 0.5 nm. Data are collected in absorbance values (A) against wavelength (nm).

[2] = tested on: 3T3 fibroblasts or HeLa cell lines; test: In vitro biocompatibility Alamar Blue assay; type: cell-based; details: 48 hours of incubation; all concentrations (0.01-1 mM)
Protocol: Cells seeded in wells (5 replicates for each group) with 100 μl DMEM media (10% FBS, 1% antibiotic). Incubated for 24 and 48 h, in a 96-well plate, 10000 cells/well, using 3T3 fibroblasts or HeLa cell lines. After 24 h, DMEM media replaced with 100 μl DMEM with dissolved test compounds (Test compounds dissolved in DMEM media to obtain final conc. of 1, 0.5, 0.1, 0.01 mM). After 24 hours of incubation, 10 μl resazurin solution (0.015%) dissolved in PBS was added to the wells followed by incubation for 3 hours. Readings taken post 24 hours and 48 hours of sample addition. (Ex-570 nm, Em-590 nm), Controls: Blank media without cells, Media with cells, Readings for (Blank media without cells) subtracted from all groups, Readings normalized against (media with cells group—100%)

[3] = Photorheometry of CaproGlu binary formulations (365 nm UVA, 10 J·cm^−2); type: physicochemical; details: neat component of Table 3; steady state viscosity, shear rate 10 sec^−1
Protocol: Rheometry was carried out on an Anton Paar MCR 102 rheometer (Anton Paar, Singapore) with a custom photocuring setup as described previously (Djordjevic, I. et al., Biomaterials 2020, 260, 120215). A PP10 parallel plate stainless steel probe was used, with a 0.2 mm measuring gap. Steady State Viscosity was measured first (shear rate 10 sec^−1), followed by a dynamic oscillatory strain measurement during photocuring (UV ON at 30 seconds, off at 2 minutes 10 seconds, 1% shear, frequency 10 Hz, amplitude 1%), then an Amplitude Sweep (shear 1-1000-%, angular frequency 10 rad-sec^−1). In reporting of G′ and G″, a smoothing function was applied. The UV lamp used was a Thor Labs 365 nm SOLIS High-Power LED connected to a DC2200 LED Driver set to constant current mode. […]
Covalent crosslinking was monitored via complex shear modulus (G*), which was measured on a custom photorheometer fitted with a narrow-band 365 nm UV diode and normal-force load cell. […] Dynamic viscosity, G′ (storage modulus), G″ (loss modulus), and normal force (caused by expansion/contraction of polymer matrix) were continually monitored and subsequently analysed for yield stress/strain with an amplitude sweep. Functional groups were qualitatively assessed before and after curing via ATR-FTIR spectroscopy to observe consumption. […]

[4] = Stability of PEGDA/PTHT mixtures with photoinitiator under indoor light; type: physicochemical; details: PEGDA+PTHT 2:1 binary mixture, 1 mol % initiator, no solvent
Protocol: Polyethylene glycol diacrylate (Mw˜575 Da), referred to as “PEGDA” further in text is used in all the experiments. PEGDA/PTHT samples are prepared by magnetic stirring of PEGDA and PTHT polymer blend (2:1 molar ratio) with diazirine photoinitiators (1 mol % DzOH or 1 mol % CG relative to the total number of mols of PEGDA in each sample). Samples with standard TPO photoinitiator (1 mol %) are used as controls. The mixing of compounds (PEGDA+PTHT) in binary mixture with photoinitiators (DzOH, CG and TPO) is completed without any solvent.

- absorbance above 400 nm ([1]; previous UV-Vis studies): does not have an absorbance above 400 nm
SMILES: O=C(O)c1ccc(C2(C(F)(F)F)N=N2)cc1 [DzCOOH, 4-[3-(Trifluoromethyl)-3H-diazirin-3-yl]benzoic acid]

SMILES: OCc1ccc(C2(C(F)(F)F)N=N2)cc1 [DzOH, 4-[3-(Trifluoromethyl)-3H-diazirin-3-yl]benzyl alcohol]
- Cell viability [2]: not significantly different from control

SMILES: O=C(CCS)OCC(COC(=O)CCS)(COC(=O)CCS)COC(=O)CCS [PTHT, pentaerythritol tetrakis 3-mercaptopropionate]
- viscosity [3]: [drawing 17] PTHT, Mw = 488.66 g · mol^-1, viscosity = 667 ± 49 mPa · s mPa·s

- molar absorption coefficient ([1]; @ 381 nm): 520 cm^−1M^−1
SMILES: Cc1cc(C)c(C(=O)P(=O)(c2ccccc2)c2ccccc2)c(C)c1 [TPO, Diphenyl(2,4,6-trimethylbenzoyl)phosphine oxide]
- stability under indoor lighting [4]: activated under indoor light; also recorded: unstable and prematurely crosslinked under fluorescent lights and white LED emitters
